{"source": "patent US20240165132A1", "about": "“METHODS AND MATERIALS FOR TREATING CANCER” (Mayo Foundation for Medical Education and Research, priority 2021, published 2024)", "type_in_all_cases": "cell-based, human", "key": {"dBT120": {"tested_on": "dBT120", "assay": "Senolytic drug screen, CellTiter-Glo viability", "settings": "dBT120 (P10); for IC50: Homo sapiens, read-out: IC50 of A1331852", "method": "(§1) Human patient-derived glioblastoma lines were utilized and were cultured according to established protocols. Tumor lines maintained as patient-derived xenografts (PDX) are from the National PDX resource. Such lines are designated as “GBM-6, 10, 12, 39, 76, 123, 164, or 196”. Implantation of patient-derived glioblastoma cells, serial passage of flank tumor xenografts, and short-term explant culturing were done as described elsewhere, with some lines maintained in serum-containing media, and some lines maintained in serum free media as noted in Table 2 (see, for example, Carlson et al., Current protocols in pharmacology. Chapter 14(14):Unit 14.16 (2011)). Some cell lines were maintained from time of harvest as in vitro cell lines rather than PDX lines, as described elsewhere (see, for example, Himes et al., Neuro-oncology. 22(7):967-978 (2020)). Such lines are designated as dBT114, dBT116, dBT120, dBT132 (dBT=differentiated brain tumor). Culture conditions were unchanged after induction of senescence.\n(§2) After plating, cells were maintained in 10 cm culture dishes for 2-4 days until >50% confluent. Cells were then treated with TMZ for 7 days or radiation (cesium gamma radiator) with varying doses. Most experiments were performed after use of 15 Gy to induce senescence. Radiation and TMZ each caused death of a variable percentage of cells in the ensuing days. “Senescent” tumor cells used for experiments are designated by those that survive following TMZ or radiation treatments. Except for radiation doses of 4 Gy or below, no visible proliferation occurred within 1 month after treatment with TMZ or radiation. For initial screening of senolytic drugs, cells were maintained for at least 20 days after radiation or TMZ prior to re-plating cells into black walled optical 96-well plates (5000 cells/well) for doing drug treatment.\n(§3) Human glioblastoma cells were exposed to 10, 15 or 20 Gy radiation as indicated above. All GBM lines tested (Table 2) yielded a subpopulation of surviving non-proliferative cells used for subsequent experiments, with the exception of GM43 which yielded insufficient surviving cells for senescence experiments. All senolytic drugs used in this study were dissolved in DMSO (Table 1). Control (0 nM) cells were treated with the same dose of DMSO as cells with the highest drug concentration. Unless specified otherwise, cells were maintained in drug-containing media for four days prior to evaluation of cell viability using ATP lite, CellTiter-Glo assay according to company protocol (Cat #G7570). For all experiments, luminescence values are normalized to the 0 nM control for that cell line and radiation dose. All dose response graphs are depicted standard error of the mean (SEM) of 3 technical replicates at each concentration. Representative data are shown for experiments performed in independent replicates.\n(§4) Multiple linear regressions were used to assess the relationship of drug dose and treatment (e.g. control, radiation, TMZ) with cell inhibition within each cell line. For these models, cell inhibition was the outcome and drug dose, treatment, and the drug dose by treatment interaction were the independent predictors. If the drug dose by treatment interaction was significant (p<0.05), pairwise comparisons were made at each drug dose between treatment groups using a two-sample t-test. Statistical analysis was performed in Microsoft Excel. IC50 was calculated by nonlinear regression (Curve fit) of dose-response inhibition curve by using GraphPad prism 8.4.2."}, "GBM123": {"tested_on": "GBM123", "assay": "Senolytic drug screen, CellTiter-Glo viability", "settings": "GBM123 (P3); for IC50: Homo sapiens, read-out: IC50 of A1331852", "method": "as §1, §2, §3, §4"}, "GBM76": {"tested_on": "GBM76", "assay": "Senolytic drug screen, CellTiter-Glo viability", "settings": "for IC50: Homo sapiens", "method": "as §1, §2, §3, §4"}, "GBM6": {"tested_on": "GBM6", "assay": "Senolytic drug screen, CellTiter-Glo viability", "settings": "GBM6 (P4); for IC50: Homo sapiens, read-out: IC50 of A1331852", "method": "as §1, §2, §3, §4"}, "GBM164": {"tested_on": "GBM164", "assay": "Senolytic drug screen, CellTiter-Glo viability", "settings": "GBM164 (P2); for IC50: Homo sapiens, read-out: IC50 of A1331852", "method": "as §1, §2, §3, §4"}, "GBM196": {"tested_on": "GBM196", "assay": "Senolytic drug screen, CellTiter-Glo viability", "settings": "GBM196 (P2); for IC50: Homo sapiens, read-out: IC50 of A1331852", "method": "as §1, §2, §3, §4"}, "dBT116": {"tested_on": "dBT116", "assay": "Senolytic drug screen, CellTiter-Glo viability", "settings": "dBT116 (P8); for IC50: Homo sapiens, read-out: IC50 of A1331852", "method": "as §1, §2, §3, §4"}, "GBM10": {"tested_on": "GBM10", "assay": "Senolytic drug screen, CellTiter-Glo viability", "settings": "GBM10 (P2); for IC50: Homo sapiens, read-out: IC50 of A1331852", "method": "as §1, §2, §3, §4"}, "GBM12": {"tested_on": "GBM12", "assay": "Senolytic drug screen, CellTiter-Glo viability", "settings": "GBM12 (P3); for IC50: Homo sapiens, read-out: IC50 of A1331852", "method": "as §1, §2, §3, §4"}, "dBT132": {"tested_on": "dBT132", "assay": "Senolytic drug screen, CellTiter-Glo viability", "settings": "dBT132 (P10); for IC50: Homo sapiens, read-out: IC50 of A1331852", "method": "as §1, §2, §3, §4"}, "GBM39, 76, 10 and 123": {"tested_on": "GBM39, 76, 10 and 123", "assay": "BCL-2-family inhibitors in radiated vs non-radiated GBM lines", "settings": "GBM39, 76, 10, 123; 4 days drug starting 21 days after radiation", "method": "Dose response curves shown for control non-radiated (black) and 15 Gy radiated (grey) cells. Cells were exposed to drug for 4 days, starting 21 days after radiation. […] For all groups, luminescence values are normalized individually to 0 nM control. Data shown are means±SEM of three technical replicates at each concentration. Data shown are representative of multiple confirmatory experiments.\nas §3\nAmong the 13 human GBM cell lines evaluated, meaningful analysis was possible in all with the exception of GBM43, for which insufficient cells survived radiation to permit testing. While the IC50 of Bcl-XL inhibition with and without radiation varied markedly between lines, radiated GBM was reproducibly more susceptible to Bcl-XL inhibition than non-radiated GBM."}}, "note": "Where two headings read alike, the source gives them in different places."}
{"smiles": "Cc1c(-c2ccc(N3CCc4cccc(C(=O)Nc5nc6ccccc6s5)c4C3)nc2C(=O)O)cnn1CC12CC3CC(CC(C3)C1)C2", "note": "[A1331852]", "values": [{"measurement": "IC50", "setting": "dBT120; 15Gy radiated", "result": 458, "unit": "nM"}, {"measurement": "IC50", "setting": "dBT120; non-radiated control", "result": 5180, "unit": "nM"}, {"measurement": "Relative sensitivity (RS)", "setting": "dBT120; control vs 15Gy", "result": 11.31}, {"measurement": "Relative sensitivity (RS)", "setting": "GBM123; control vs 15Gy", "result": 2.457}, {"measurement": "IC50", "setting": "GBM123; 15Gy radiated", "result": 9360, "unit": "nM"}, {"measurement": "IC50", "setting": "GBM123; non-radiated control", "result": 23000, "unit": "nM"}, {"measurement": "Relative sensitivity (RS)", "setting": "GBM76; GBM76 (P2), control vs 10Gy", "result": "31.77 ± 23.61"}, {"measurement": "Relative sensitivity (RS)", "setting": "GBM76; GBM76 (P2), control vs 15Gy", "result": "20.64 ± 5.633"}, {"measurement": "Relative sensitivity (RS)", "setting": "GBM76; GBM76 (P2), control vs 20Gy", "result": "34.24 ± 7.988"}, {"measurement": "Relative sensitivity (RS)", "setting": "GBM76; GBM76 (P3), control vs TMZ", "result": 28.21}, {"measurement": "IC50 in radiated vs non-radiated cells", "setting": "GBM76; GBM76, 10, 15, 20 Gy vs non-radiated control, 4 days drug", "result": "lower IC50 radiated cells"}, {"measurement": "IC50", "setting": "GBM76; read-out: IC50 of A1331852, 10Gy, GBM76 (P2), 10Gy radiated", "result": "1000 ± 367", "unit": "nM"}, {"measurement": "IC50", "setting": "GBM76; read-out: IC50 of A1331852, 15Gy, GBM76 (P2), 15Gy radiated", "result": "1230 ± 416", "unit": "nM"}, {"measurement": "IC50", "setting": "GBM76; read-out: IC50 of A1331852, 20Gy, GBM76 (P2), 20Gy radiated", "result": "679 ± 49.2", "unit": "nM"}, {"measurement": "IC50", "setting": "GBM76; read-out: IC50 of A1331852, Control, GBM76 (P2), non-radiated control", "result": "23500 ± 6760", "unit": "nM"}, {"measurement": "IC50", "setting": "GBM76; read-out: IC50 of A1331852, Control, GBM76 (P3), control of TMZ series", "result": 1680, "unit": "nM"}, {"measurement": "IC50", "setting": "GBM76; read-out: IC50 of A1331852, TMZ, GBM76 (P3), TMZ treated", "result": 59.7, "unit": "nM"}, {"measurement": "Relative sensitivity (RS)", "setting": "GBM6; control vs 10Gy", "result": 26.58}, {"measurement": "Relative sensitivity (RS)", "setting": "GBM6; control vs 15Gy", "result": 26.58}, {"measurement": "Relative sensitivity (RS)", "setting": "GBM6; control vs 20Gy", "result": 16.72}, {"measurement": "IC50", "setting": "GBM6; 10Gy radiated", "result": 532, "unit": "nM"}, {"measurement": "IC50", "setting": "GBM6; 15Gy radiated", "result": 532, "unit": "nM"}, {"measurement": "IC50", "setting": "GBM6; 20Gy radiated", "result": 845, "unit": "nM"}, {"measurement": "IC50", "setting": "GBM6; non-radiated control", "result": 14100, "unit": "nM"}, {"measurement": "Relative sensitivity (RS)", "setting": "GBM164; control vs 15Gy", "result": 3.824}, {"measurement": "IC50", "setting": "GBM164; 15Gy radiated", "result": 77.7, "unit": "nM"}, {"measurement": "IC50", "setting": "GBM164; non-radiated control", "result": 297, "unit": "nM"}, {"measurement": "Relative sensitivity (RS)", "setting": "GBM196; control vs 15Gy", "result": 10.72}, {"measurement": "IC50", "setting": "GBM196; 15Gy radiated", "result": 2550, "unit": "nM"}, {"measurement": "IC50", "setting": "GBM196; non-radiated control", "result": 27300, "unit": "nM"}, {"measurement": "IC50", "setting": "dBT116; 20Gy radiated", "result": 63.5, "unit": "nM"}, {"measurement": "IC50", "setting": "dBT116; non-radiated control", "result": 290, "unit": "nM"}, {"measurement": "Relative sensitivity (RS)", "setting": "dBT116; control vs 20Gy", "result": 4.566}, {"measurement": "Relative sensitivity (RS)", "setting": "GBM10; control vs 15Gy", "result": 16.19}, {"measurement": "IC50", "setting": "GBM10; 15Gy radiated", "result": 2470, "unit": "nM"}, {"measurement": "IC50", "setting": "GBM10; non-radiated control", "result": 40000, "unit": "nM"}, {"measurement": "Relative sensitivity (RS)", "setting": "GBM12; control vs 15Gy", "result": "11.31 ± 8.282"}, {"measurement": "IC50", "setting": "GBM12; 15Gy radiated", "result": "22.9 ± 7.61", "unit": "nM"}, {"measurement": "IC50", "setting": "GBM12; non-radiated control", "result": "390 ± 70", "unit": "nM"}, {"measurement": "IC50", "setting": "dBT132; 96 h, non-radiated control, 4 days drug", "result": 18200, "unit": "nM"}, {"measurement": "IC50", "setting": "dBT132; 10Gy radiated", "result": 4310, "unit": "nM"}, {"measurement": "IC50", "setting": "dBT132; 20Gy radiated", "result": 2930, "unit": "nM"}, {"measurement": "Relative sensitivity (RS)", "setting": "dBT132; control vs 10Gy", "result": 4.214}, {"measurement": "Relative sensitivity (RS)", "setting": "dBT132; control vs 20Gy", "result": 6.192}, {"measurement": "Sensitivity of 15 Gy-radiated vs non-radiated cells", "setting": "GBM39, 76, 10 and 123", "result": "higher sensitivity than non-radiated cells"}]}
